Experimental data: patent publication US9873709B2 (priority 2013, dated 2018)

What follows are compounds tested on JAK1-dependent STAT6 phosphorylation downstream of IL-13 stimulation in TF-1 human erythroleukemia cells (assay: cells). Conditions: TF-1, read-out: IL-13-pSTAT6 IC50.

| Structure (SMILES) | IC50 [nM] |
| --- | --- |
| CN(CCN)C(=O)c1ccc(Nc2nc3c(C4=CCN(C(=O)CCC(F)(F)F)CC4)cccn3n2)cc1 [Example 2-441, N-(2-aminoethyl)-N-methyl-4-[[8-[1-(4,4,4-trifluorobutanoyl)-3,6-dihydro-2H-pyridin-4-yl]-[1,2,4]triazolo[1,5-a]pyridin-2-yl]amino]benzamide] | 82.4 |
| O=C(CCC(F)(F)F)N1CC=C(c2cccn3nc(Nc4ccc(C(=O)N5CCCC6(CCCNC6)C5)cc4)nc23)CC1 (centres unmarked) [Example 2-443, 1-[4-[2-[4-(2,8-diazaspiro[5.5]undecane-2-carbonyl)anilino]-[1,2,4]triazolo[1,5-a]pyridin-8-yl]-3,6-dihydro-2H-pyridin-1-yl]-4,4,4-trifluoro-butan-1-one] | 72.3 |
| O=C(NCC1CCNC1)c1ccc(Nc2nc3c(C4=CCN(C(=O)CCC(F)(F)F)CC4)cccn3n2)cc1 (centres unmarked) [Example 2-444, N-(pyrrolidin-3-ylmethyl)-4-[[8-[1-(4,4,4-trifluorobutanoyl)-3,6-dihydro-2H-pyridin-4-yl]-[1,2,4]triazolo[1,5-a]pyridin-2-yl]amino]benzamide] | 154 |
| O=C(NC1CCNCC1)c1ccc(Nc2nc3c(C4=CCN(C(=O)CCC(F)(F)F)CC4)cccn3n2)cc1 [Example 2-445, N-(4-piperidyl)-4-[[8-[1-(4,4,4-trifluorobutanoyl)-3,6-dihydro-2H-pyridin-4-yl]-[1,2,4]triazolo[1,5-a]pyridin-2-yl]amino]benzamide] | 456 |
| NCC1CCN(C(=O)c2ccc(Nc3nc4c(C5=CCN(C(=O)CCC(F)(F)F)CC5)cccn4n3)cc2)CC1 [Example 2-446, 1-[4-[2-[4-[4-(aminomethyl)piperidine-1-carbonyl]anilino]-[1,2,4]triazolo[1,5-a]pyridin-8-yl]-3,6-dihydro-2H-pyridin-1-yl]-4,4,4-trifluoro-butan-1-one] | 208 |
| NCC1CCN(C(=O)c2ccc(Nc3nc4c(C5=CCN(C(=O)CCC(F)(F)F)CC5)cccn4n3)cc2)C1 (centres unmarked) [Example 2-447, 1-[4-[2-[4-[3-(aminomethyl)pyrrolidine-1-carbonyl]anilino]-[1,2,4]triazolo[1,5-a]pyridin-8-yl]-3,6-dihydro-2H-pyridin-1-yl]-4,4,4-trifluoro-butan-1-one] | 275 |
| O=C(CCC(F)(F)F)N1CC=C(c2cccn3nc(Nc4ccc(C(=O)N5CCO[C@@H]6CNC[C@H]65)cc4)nc23)CC1 [Example 2-448, 1-[4-[2-[4-[(4aR,7aR)-3,4a,5,6,7,7a-hexahydro-2H-pyrrolo[3,4-b][1,4]oxazine-4-carbonyl]anilino]-[1,2,4]triazolo[1,5-a]pyridin-8-yl]-3,6-dihydro-2H-pyridin-1-yl]-4,4,4-trifluoro-butan-1-one] | 120 |
| O=C(CCC(F)(F)F)N1CC=C(c2cccn3nc(Nc4ccc(C(=O)N5C[C@H]6CN[C@H]6C5)cc4)nc23)CC1 [Example 2-449, 1-[4-[2-[4-[(1R,5R)-3,6-diazabicyclo[3.2.0]heptane-3-carbonyl]anilino]-[1,2,4]triazolo[1,5-a]pyridin-8-yl]-3,6-dihydro-2H-pyridin-1-yl]-4,4,4-trifluoro-butan-1-one] | 355 |
| O=C(CCC(F)(F)F)N1CC=C(c2cccn3nc(Nc4ccc(C(=O)N5CCCCC56CCNCC6)cc4)nc23)CC1 [Example 2-450, 1-[4-[2-[4-(1,9-diazaspiro[5.5]undecane-1-carbonyl)anilino]-[1,2,4]triazolo[1,5-a]pyridin-8-yl]-3,6-dihydro-2H-pyridin-1-yl]-4,4,4-trifluoro-butan-1-one] | 115 |
| CN(C(=O)c1ccc(Nc2nc3c(C4=CCN(C(=O)CCC(F)(F)F)CC4)cccn3n2)cc1)C1CNC1 [Example 2-451] | 287 |
| NCC12CC(CN1C(=O)c1ccc(Nc3nc4c(C5=CCN(C(=O)CCC(F)(F)F)CC5)cccn4n3)cc1)C2 [Example 2-452, 1-[4-[2-[4-[4-(aminomethyl)-3-azabicyclo[2.1.1]hexane-3-carbonyl]anilino]-[1,2,4]triazolo[1,5-a]pyridin-8-yl]-3,6-dihydro-2H-pyridin-1-yl]-4,4,4-trifluoro-butan-1-one] | 134 |
| O=C(CCC(F)(F)F)N1CC=C(c2cccn3nc(Nc4ccc(C(=O)N5CCOC6CCNCC65)cc4)nc23)CC1 (centres unmarked) [Example 2-453, 1-[4-[2-[4-(2,3,4a,5,6,7,8,8a-octahydropyrido[4,3-b][1,4]oxazine-4-carbonyl)anilino]-[1,2,4]triazolo[1,5-a]pyridin-8-yl]-3,6-dihydro-2H-pyridin-1-yl]-4,4,4-trifluoro-butan-1one] | 171 |
| O=C(N[C@H]1[C@@H]2CNC[C@@H]21)c1ccc(Nc2nc3c(C4=CCN(C(=O)CCC(F)(F)F)CC4)cccn3n2)cc1 [Example 2-454, N-[(1R,5S)-3-azabicyclo[3.1.0]hexan-6-yl]-4-[[8-[1-(4,4,4-trifluorobutanoyl)-3,6-dihydro-2H-pyridin-4-yl]-[1,2,4]triazolo[1,5-a]pyridin-2-yl]amino]benzamide] | 87.9 |
| O=C(NCCN1CCCCC1)c1ccc(Nc2nc3c(C4=CCN(C(=O)CCC(F)(F)F)CC4)cccn3n2)cc1 [Example 2-455, N-[2-(1-piperidyl)ethyl]-4-[[8-[1-(4,4,4-trifluorobutanoyl)-3,6-dihydro-2H-pyridin-4-yl]-[1,2,4]triazolo[1,5-a]pyridin-2-yl]amino]benzamide] | 5.5 |
| O=C(CCC(F)(F)F)N1CC=C(c2cccn3nc(Nc4ccc(C(=O)N5CCC(c6ccncc6)CC5)cc4)nc23)CC1 [Example 2-456, 4,4,4-trifluoro-1-[4-[2-[4-[4-(4-pyridyl)piperidine-1-carbonyl]anilino]-[1,2,4]triazolo[1,5-a]pyridin-8-yl]-3,6-dihydro-2H-pyridin-1-yl]butan-1-one] | 7.5 |
| CN1C2COCC1CN(C(=O)c1ccc(Nc3nc4c(C5=CCN(C(=O)CCC(F)(F)F)CC5)cccn4n3)cc1)C2 [Example 2-458, 4,4,4-trifluoro-1-[4-[2-[4-(9-methyl-3-oxa-7,9-diazabicyclo[3.3.1]nonane-7-carbonyl)anilino]-[1,2,4]triazolo[1,5-a]pyridin-8-yl]-3,6-dihydro-2H-pyridin-1-yl]butan-1-one] | 45.9 |
| CN1CCC(NC(=O)c2ccc(Nc3nc4c(C5=CCN(C(=O)CCC(F)(F)F)CC5)cccn4n3)cc2)C1 (centres unmarked) [Example 2-459, N-(1-methylpyrrolidin-3-yl)-4-[[8-[1-(4,4,4-trifluorobutanoyl)-3,6-dihydro-2H-pyridin-4-yl]-[1,2,4]triazolo[1,5-a]pyridin-2-yl]amino]benzamide] | 20.5 |
| CN(Cc1ccc2ncccc2c1)C(=O)c1ccc(Nc2nc3c(C4=CCN(C(=O)CCC(F)(F)F)CC4)cccn3n2)cc1 [Example 2-460, N-methyl-N-(6-quinolylmethyl)-4-[[8-[1-(4,4,4-trifluorobutanoyl)-3,6-dihydro-2H-pyridin-4-yl]-[1,2,4]triazolo[1,5-a]pyridin-2-yl]amino]benzamide] | 27.6 |
| CC1CCCN(C2CCN(C(=O)c3ccc(Nc4nc5c(C6=CCN(C(=O)CCC(F)(F)F)CC6)cccn5n4)cc3)CC2)C1 (centres unmarked) [Example 2-461, 4,4,4-trifluoro-1-[4-[2-[4-[4-(3-methyl-1-piperidyl)piperidine-1-carbonyl]anilino]-[1,2,4]triazolo[1,5-a]pyridin-8-yl]-3,6-dihydro-2H-pyridin-1-yl]butan-1-one] | 6.1 |
| O=C(CCC(F)(F)F)N1CC=C(c2cccn3nc(Nc4ccc(C(=O)N5CCN(CCn6ccnc6)CC5)cc4)nc23)CC1 [Example 2-462, 4,4,4-trifluoro-1-[4-[2-[4-[4-(2-imidazol-1-ylethyl)piperazine-1-carbonyl]anilino]-[1,2,4]triazolo[1,5-a]pyridin-8-yl]-3,6-dihydro-2H-pyridin-1-yl]butan-1-one] | 44.4 |
| CC(C)N1CCC(CN(C)C(=O)c2ccc(Nc3nc4c(C5=CCN(C(=O)CCC(F)(F)F)CC5)cccn4n3)cc2)C1 (centres unmarked) [Example 2-463, N-[(1-isopropylpyrrolidin-3-yl)methyl]-N-methyl-4-[[8-[1-(4,4,4-trifluorobutanoyl)-3,6-dihydro-2H-pyridin-4-yl]-[1,2,4]triazolo[1,5-a]pyridin-2-yl]amino]benzamide] | 26 |
| CN(C)C1CCN(C(=O)c2ccc(Nc3nc4c(C5=CCN(C(=O)CCC(F)(F)F)CC5)cccn4n3)cc2)C1 (centres unmarked) [Example 2-464, 1-[4-[2-[4-[3-(dimethylamino)pyrrolidine-1-carbonyl]anilino]-[1,2,4]triazolo[1,5-a]pyridin-8-yl]-3,6-dihydro-2H-pyridin-1-yl]-4,4,4-trifluoro-butan-1-one] | 9.1 |
| O=C(NCCN1CCOCC1)c1ccc(Nc2nc3c(C4=CCN(C(=O)CCC(F)(F)F)CC4)cccn3n2)cc1 [Example 2-465, N-(2-morpholinoethyl)-4-[[8-[1-(4,4,4-trifluorobutanoyl)-3,6-dihydro-2H-pyridin-4-yl]-[1,2,4]triazolo[1,5-a]pyridin-2-yl]amino]benzamide] | 9.4 |
| O=C(NCCN1CCCC1)c1ccc(Nc2nc3c(C4=CCN(C(=O)CCC(F)(F)F)CC4)cccn3n2)cc1 [Example 2-466, N-(2-pyrrolidin-1-ylethyl)-4-[[8-[1-(4,4,4-trifluorobutanoyl)-3,6-dihydro-2H-pyridin-4-yl]-[1,2,4]triazolo[1,5-a]pyridin-2-yl]amino]benzamide] | 17.9 |
| CN1CCC(CNC(=O)c2ccc(Nc3nc4c(C5=CCN(C(=O)CCC(F)(F)F)CC5)cccn4n3)cc2)CC1 [Example 2-467, N-[(1-methyl-4-piperidyl)methyl]-4-[[8-[1-(4,4,4-trifluorobutanoyl)-3,6-dihydro-2H-pyridin-4-yl]-[1,2,4]triazolo[1,5-a]pyridin-2-yl]amino]benzamide] | 20.9 |
| Cc1cccc(C2CCN(C(=O)c3ccc(Nc4nc5c(C6=CCN(C(=O)CCC(F)(F)F)CC6)cccn5n4)cc3)CC2)n1 [Example 2-468, 4,4,4-trifluoro-1-[4-[2-[4-[4-(6-methyl-2-pyridyl)piperidine-1-carbonyl]anilino]-[1,2,4]triazolo[1,5-a]pyridin-8-yl]-3,6-dihydro-2H-pyridin-1-yl]butan-1-one] | 12.8 |
